Conditions: Liquid; for mass density: isochoric method; for viscosity: Falling or rolling sphere viscometry

CCC(C)C(C)C (stereo unspecified) [2,3-dimethylpentane]
Conditions | mass density [kg/m3] | viscosity [mPa·s]
278.15 K, 100 kPa | 707.6 | –
278.15 K, 1000 kPa | 708.3 | –
278.15 K, 5000 kPa | 711.6 | –
278.15 K, 10000 kPa | 715.5 | –
278.15 K, 15000 kPa | 719.1 | –
278.15 K, 20000 kPa | 722.7 | –
278.15 K, 25000 kPa | 726 | –
278.15 K, 30000 kPa | 729.2 | –
278.15 K, 35000 kPa | 732.2 | –
278.15 K, 40000 kPa | 735.2 | –
278.15 K, 45000 kPa | 738 | –
283.15 K, 100 kPa | 703.2 | –
283.15 K, 1000 kPa | 704 | –
283.15 K, 5000 kPa | 707.4 | –
283.15 K, 10000 kPa | 711.5 | –
283.15 K, 15000 kPa | 715.3 | –
283.15 K, 20000 kPa | 718.9 | –
283.15 K, 25000 kPa | 722.3 | –
283.15 K, 30000 kPa | 725.6 | –
283.15 K, 35000 kPa | 728.7 | –
283.15 K, 40000 kPa | 731.7 | –
283.15 K, 45000 kPa | 734.6 | –
293.15 K, 100 kPa | 694.9 | –
293.15 K, 1000 kPa | 695.7 | –
293.15 K, 5000 kPa | 699.3 | –
293.15 K, 10000 kPa | 703.6 | –
293.15 K, 15000 kPa | 707.7 | –
293.15 K, 20000 kPa | 711.5 | –
293.15 K, 25000 kPa | 715.1 | –
293.15 K, 30000 kPa | 718.6 | –
293.15 K, 35000 kPa | 721.9 | –
293.15 K, 40000 kPa | 725 | –
293.15 K, 45000 kPa | 728 | –
303.15 K, 100 kPa | 686.3 | 0.356
303.15 K, 1000 kPa | 687.2 | 0.36
303.15 K, 5000 kPa | 691.1 | 0.377
303.15 K, 10000 kPa | 695.7 | 0.398
303.15 K, 15000 kPa | 700 | 0.419
303.15 K, 20000 kPa | 704.1 | 0.441
303.15 K, 25000 kPa | 707.9 | 0.462
303.15 K, 30000 kPa | 711.6 | 0.485
303.15 K, 35000 kPa | 715 | 0.507
303.15 K, 40000 kPa | 718.3 | 0.53
303.15 K, 45000 kPa | 721.5 | 0.553
303.15 K, 50000 kPa | – | 0.576
303.15 K, 55000 kPa | – | 0.6
303.15 K, 60000 kPa | – | 0.624
313.15 K, 100 kPa | 677.6 | 0.324
313.15 K, 1000 kPa | 678.6 | 0.328
313.15 K, 5000 kPa | 682.8 | 0.343
313.15 K, 10000 kPa | 687.7 | 0.361
313.15 K, 15000 kPa | 692.3 | 0.38
313.15 K, 20000 kPa | 696.6 | 0.399
313.15 K, 25000 kPa | 700.7 | 0.418
313.15 K, 30000 kPa | 704.5 | 0.438
313.15 K, 35000 kPa | 708.2 | 0.458
313.15 K, 40000 kPa | 711.6 | 0.479
313.15 K, 45000 kPa | 715 | 0.5
313.15 K, 50000 kPa | – | 0.522
313.15 K, 55000 kPa | – | 0.544
313.15 K, 60000 kPa | – | 0.566
323.15 K, 100 kPa | 668.7 | 0.29
323.15 K, 1000 kPa | 669.8 | 0.294
323.15 K, 5000 kPa | 674.3 | 0.308
323.15 K, 10000 kPa | 679.6 | 0.326
323.15 K, 15000 kPa | 684.5 | 0.344
323.15 K, 20000 kPa | 689.1 | 0.362
323.15 K, 25000 kPa | 693.4 | 0.381
323.15 K, 30000 kPa | 697.5 | 0.399
323.15 K, 35000 kPa | 701.3 | 0.418
323.15 K, 40000 kPa | 705 | 0.437
323.15 K, 45000 kPa | 708.4 | 0.457
323.15 K, 50000 kPa | – | 0.476
323.15 K, 55000 kPa | – | 0.496
323.15 K, 60000 kPa | – | 0.517
333.15 K, 100 kPa | 659.7 | 0.262
333.15 K, 1000 kPa | 660.9 | 0.266
333.15 K, 5000 kPa | 665.8 | 0.28
333.15 K, 10000 kPa | 671.5 | 0.298
333.15 K, 15000 kPa | 676.7 | 0.316
333.15 K, 20000 kPa | 681.6 | 0.334
333.15 K, 25000 kPa | 686.2 | 0.352
333.15 K, 30000 kPa | 690.5 | 0.369
333.15 K, 35000 kPa | 694.5 | 0.387
333.15 K, 40000 kPa | 698.3 | 0.404
333.15 K, 45000 kPa | 702 | 0.422
333.15 K, 50000 kPa | – | 0.439
333.15 K, 55000 kPa | – | 0.457
333.15 K, 60000 kPa | – | 0.474
343.15 K, 100 kPa | 650.6 | 0.244
343.15 K, 1000 kPa | 651.9 | 0.247
343.15 K, 5000 kPa | 657.2 | 0.26
343.15 K, 10000 kPa | 663.3 | 0.276
343.15 K, 15000 kPa | 668.9 | 0.292
343.15 K, 20000 kPa | 674.1 | 0.309
343.15 K, 25000 kPa | 678.9 | 0.325
343.15 K, 30000 kPa | 683.5 | 0.342
343.15 K, 35000 kPa | 687.7 | 0.359
343.15 K, 40000 kPa | 691.7 | 0.376
343.15 K, 45000 kPa | 695.5 | 0.393
343.15 K, 50000 kPa | – | 0.41
343.15 K, 55000 kPa | – | 0.428
343.15 K, 60000 kPa | – | 0.445
353.15 K, 100 kPa | 641.3 | 0.232
353.15 K, 1000 kPa | 642.7 | 0.234
353.15 K, 5000 kPa | 648.5 | 0.246
353.15 K, 10000 kPa | 655.1 | 0.261
353.15 K, 15000 kPa | 661.1 | 0.276
353.15 K, 20000 kPa | 666.6 | 0.291
353.15 K, 25000 kPa | 671.7 | 0.306
353.15 K, 30000 kPa | 676.5 | 0.321
353.15 K, 35000 kPa | 680.9 | 0.336
353.15 K, 40000 kPa | 685.1 | 0.35
353.15 K, 45000 kPa | 689.1 | 0.365
353.15 K, 50000 kPa | – | 0.381
353.15 K, 55000 kPa | – | 0.395
353.15 K, 60000 kPa | – | 0.411

CCCCCCC [heptane]
viscosity [mPa·s]
Conditions | 303.15 K | 313.15 K | 323.15 K | 333.15 K | 343.15 K | 353.15 K
100 kPa | 0.368 | 0.33 | 0.303 | 0.273 | 0.245 | 0.231
1000 kPa | 0.371 | 0.334 | 0.306 | 0.276 | 0.247 | 0.233
5000 kPa | 0.387 | 0.348 | 0.319 | 0.289 | 0.26 | 0.246
10000 kPa | 0.408 | 0.368 | 0.336 | 0.306 | 0.277 | 0.262
15000 kPa | 0.429 | 0.388 | 0.354 | 0.323 | 0.294 | 0.278
20000 kPa | 0.45 | 0.407 | 0.371 | 0.34 | 0.31 | 0.293
25000 kPa | 0.471 | 0.427 | 0.389 | 0.357 | 0.326 | 0.307
30000 kPa | 0.492 | 0.446 | 0.406 | 0.374 | 0.341 | 0.322
35000 kPa | 0.514 | 0.465 | 0.424 | 0.39 | 0.357 | 0.336
40000 kPa | 0.535 | 0.484 | 0.442 | 0.407 | 0.372 | 0.349
45000 kPa | 0.556 | 0.503 | 0.461 | 0.423 | 0.387 | 0.361
50000 kPa | 0.578 | 0.522 | 0.479 | 0.439 | 0.402 | 0.374
55000 kPa | 0.6 | 0.542 | 0.498 | 0.456 | 0.416 | 0.386
60000 kPa | 0.622 | 0.562 | 0.517 | 0.472 | 0.431 | 0.397

Cc1ccccc1 [toluene]
viscosity [mPa·s]
Conditions | 303.15 K | 313.15 K | 323.15 K | 333.15 K | 343.15 K | 353.15 K
100 kPa | 0.525 | 0.469 | 0.422 | 0.382 | 0.349 | 0.32
1000 kPa | 0.526 | 0.474 | 0.427 | 0.386 | 0.351 | 0.32
5000 kPa | 0.544 | 0.487 | 0.439 | 0.397 | 0.362 | 0.331
10000 kPa | 0.568 | 0.509 | 0.458 | 0.413 | 0.376 | 0.344
15000 kPa | 0.593 | 0.529 | 0.476 | 0.43 | 0.391 | 0.359
20000 kPa | 0.617 | 0.55 | 0.495 | 0.446 | 0.406 | 0.373
25000 kPa | 0.64 | 0.57 | 0.514 | 0.463 | 0.421 | 0.387
30000 kPa | 0.662 | 0.59 | 0.533 | 0.48 | 0.437 | 0.401
35000 kPa | 0.685 | 0.61 | 0.552 | 0.497 | 0.453 | 0.415
40000 kPa | 0.707 | 0.63 | 0.572 | 0.515 | 0.469 | 0.429
45000 kPa | 0.729 | 0.651 | 0.592 | 0.533 | 0.485 | 0.443
50000 kPa | 0.752 | 0.671 | 0.612 | 0.551 | 0.502 | 0.458
55000 kPa | 0.774 | 0.693 | 0.633 | 0.571 | 0.52 | 0.473
60000 kPa | 0.797 | 0.715 | 0.654 | 0.59 | 0.537 | 0.488
